From US20230087118A1, “IMIDAZO[1,2-a][sequence] DERIVATIVES AND THEIR USE IN THE TREATMENT OF DISEASE” (priority 2019, published 2023)
pIC50: −log10 of the molar value. Counter-ions that a name gives are not always drawn. Like-named read-outs stand apart in the source and are kept apart here.

Target: T1, IRAK4 (Homo sapiens, UniProt Q9NWZ3)
T1 sequence (Q9NWZ3 1-460): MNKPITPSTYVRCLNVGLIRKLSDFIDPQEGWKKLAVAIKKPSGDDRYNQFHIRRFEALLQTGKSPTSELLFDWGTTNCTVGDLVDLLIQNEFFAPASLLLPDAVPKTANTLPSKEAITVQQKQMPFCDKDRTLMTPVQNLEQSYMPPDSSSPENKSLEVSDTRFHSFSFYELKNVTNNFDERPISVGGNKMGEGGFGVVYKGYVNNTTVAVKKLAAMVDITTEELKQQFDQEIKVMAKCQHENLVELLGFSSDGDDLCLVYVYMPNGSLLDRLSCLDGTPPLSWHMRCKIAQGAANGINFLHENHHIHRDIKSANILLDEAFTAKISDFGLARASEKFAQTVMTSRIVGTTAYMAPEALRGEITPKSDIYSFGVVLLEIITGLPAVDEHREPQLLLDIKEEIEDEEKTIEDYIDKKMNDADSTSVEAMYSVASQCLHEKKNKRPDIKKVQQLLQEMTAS
Experiment: biochemical
Details: for IC50: IRAK4 Biochemical Assay (1 mM ATP, 2 h) IC50 (μM), 1 mM ATP, 2 h, 100 pM IRAK4

pIC50 | IC50 | Structure (SMILES)
8.62 | – | CCOc1nc(C(=O)Nc2cccc(C(F)F)n2)cn2cc(C34COC(C)(C3)C4)nc12 [Example 226]
8.72 | – | O=C(Nc1cccn(C(F)F)c1=O)c1cn2cc(C3CC3)nc2cc1OC1CCCC1 [Example 458, 7-(Cyclopentyloxy)-2-cyclopropyl-N-(1-(difluoromethyl)-2-oxo-1,2-dihydropyridin-3-yl)imidazo[1,2-a]pyridine-6-carboxamide]
8.72 | – | CC(C)Oc1cc2nc(C34COC(C)(C3)C4)cn2cc1C(=O)Nc1cnn2cc(C3CC3)cnc12 [Example 322, N-(6-cyclopropylpyrazolo[1,5-a]pyrimidin-3-yl)-7-isopropoxy-2-(1-methyl-2-oxabicyclo[2.1.1]hexan-4-yl)imidazo[1,2-a]pyridine-6-carboxamide]
7.82 | – | COc1cc2nc(C3CCOCC3)cn2cc1C(=O)Nc1cccc(Cl)c1F [Example 114]
7.89 | – | CCOc1nc(C(=O)Nc2cc(F)cnc2OC)cn2cc([C@H]3CCCOC3)nc12 (single isomer, unassigned) [Example 595]
8.18 | – | COc1ccc2ncc(NC(=O)c3cn4cc(C56COC(C)(C5)C6)nc4cc3OC(C)C)n2n1 [Example 301, 7-Isopropoxy-N-(6-methoxyimidazo[1,2-b]pyridazin-3-yl)-2-(1-methyl-2-oxabicyclo[2.1.1]hexan-4-yl)imidazo[1,2-a]pyridine-6-carboxamide]
8.80 | – | Cn1ccc(NC(=O)c2cn3cc([C@]45CC[C@](C)(C4)OC5)nc3cc2OC2CCCC2)n1 (single isomer, unassigned) [Example 633]
– | 0.0021 µM | CC12CC(c3cn4cc(C(=O)Nc5cccc(C(F)F)n5)c(OC5CC5)nc4n3)(CO1)C2 [Example 312, 7-Cyclopropoxy-N-(6-(difluoromethyl)pyridin-2-yl)-2-(1-methyl-2-oxabicyclo[2.1.1]hexan-4-yl)imidazo[1,2-a]pyrimidine-6-carboxamide trifluoroacetate]
8.89 | – | COc1ncccc1NC(=O)c1cn2cc(C34COC(C3)C4)nc2cc1OC(C)C [Example 545, 2-(2-Oxabicyclo[2.1.1]hexan-4-yl)-7-isopropoxy-N-(2-methoxypyridin-3-yl)imidazo[1,2-a]pyridine-6-carboxamide]
7.54 | – | CCOc1cc2nc([C@@H]3C[C@@H]3F)cn2cc1C(=O)Nc1cccc(OC)n1 [Example 80]
9.52 | – | CC(C)Oc1cc2nc(C34COC(C)(C3)C4)cn2cc1C(=O)Nc1cccc(C(F)(F)F)n1 [Example 245]
6.78 | – | COc1cc2nc(C3CCOCC3)cn2cc1C(=O)Nc1ccn(C2CC2(F)F)n1 (centres unmarked) [Example 197]
9.15 | – | COc1ncccc1NC(=O)c1cn2cc(C34CCC(C3)OC4)nc2cc1OC(C)C (centres unmarked) [Example 249]
7.94 | – | C[C@]12CC[C@](c3cn4cc(C(=O)Nc5cccc(C(F)F)n5)cc(OC(F)F)c4n3)(CO1)C2 (single isomer, unassigned) [Example 585]
8.06 | – | CCOc1nc(C(=O)Nc2cccc(Cl)c2)cn2cc(C34COC(C)(C3)C4)nc12 [Example 495, N-(3-chlorophenyl)-8-ethoxy-2-(1-methyl-2-oxabicyclo[2.1.1]hexan-4-yl)imidazo[1,2-a]pyrazine-6-carboxamide]
8.05 | – | CC(C)Oc1cc2nc(C34CCC(C)(C3)OC4)cn2cc1C(=O)Nc1nccs1 (centres unmarked) [Example 512, 7-Isopropoxy-2-(1-methyl-2-oxabicyclo[2.2.1]heptan-4-yl)-N-(thiazol-2-yl)imidazo[1,2-a]pyridine-6-carboxamide]
– | 0.003 µM | CC(C)Oc1c(C(=O)Nc2cccc(C(F)(F)F)n2)cn2cc(C34COC(C)(C3)C4)nc2c1F [Example 230, 8-Fluoro-7-isopropoxy-2-(1-methyl-2-oxabicyclo[2.1.1]hexan-4-yl)-N-(6-(trifluoromethyl)pyridin-2-yl)imidazo[1,2-a]pyridine-6-carboxamide trifluoroacetate]

pIC50 | IC50 | Structure (SMILES)
8.07 | – | CCOc1nc(C(=O)Nc2cccnc2OC)cn2cc(C3CCCOC3)nc12 (centres unmarked) [Example 224]
6.64 | – | COc1cccc(NC(=O)c2cn3cc(C4CCOCC4)nc3cn2)n1 [Example 81]
– | 0.0097 µM | CC(C)Oc1cc2nc(C34COC(C)(C3)C4)cn2cc1C(=O)Nc1nccc(C(F)F)n1 [Example 295, N-(4-(difluoromethyl)pyrimidin-2-yl)-7-isopropoxy-2-(1-methyl-2-oxabicyclo[2.1.1]hexan-4-yl)imidazo[1,2-a]pyridine-6-carboxamide trifluoroacetate]
7.82 | – | COc1cccc(NC(=O)c2cn3cc(C45COC(C)(C4)C5)nc3cc2OC)n1 [Example 31]
– | 0.0057 µM | CC(C)Oc1nc2nc(C34COC(C)(C3)C4)cn2cc1C(=O)Nc1ccn(C2CCC2)n1 [Example 364, N-(1-cyclobutyl-1H-pyrazol-3-yl)-7-isopropoxy-2-(1-methyl-2-oxabicyclo[2.1.1]hexan-4-yl)imidazo[1,2-a]pyrimidine-6-carboxamide trifluoroacetate]
7.94 | – | COc1cc2nc(C3CCOCC3)cn2cc1C(=O)Nc1cccnc1OC(C)C [Example 200]
8.57 | – | CCOc1nc(C(=O)Nc2cccc(F)c2OC)cn2cc(C34COC(C)(C3)C4)nc12 [Example 487, 8-Ethoxy-N-(3-fluoro-2-methoxyphenyl)-2-(1-methyl-2-oxabicyclo[2.1.1]hexan-4-yl)imidazo[1,2-a]pyrazine-6-carboxamide]
8.43 | – | CC(C)Oc1nc2nc(C34COC(C)(C3)C4)cn2cc1C(=O)Nc1ccn(C(F)F)n1 [Example 361, N-(1-(difluoromethyl)-1H-pyrazol-3-yl)-7-isopropoxy-2-(1-methyl-2-oxabicyclo[2.1.1]hexan-4-yl)imidazo[1,2-a]pyrimidine-6-carboxamide]
9.40 | – | CC(C)Oc1cc2nc(C34COC(C)(C3)C4)cn2cc1C(=O)Nc1cncc2cccnc12 [Example 320, 7-Isopropoxy-2-(1-methyl-2-oxabicyclo[2.1.1]hexan-4-yl)-N-(1,6-naphthyridin-8-yl)imidazo[1,2-a]pyridine-6-carboxamide]
8.92 | – | CC(C)Oc1nc2nc(C34COC(C)(C3)C4)cn2cc1C(=O)Nc1cccc(OC(F)(F)F)n1 [Example 412, 7-Isopropoxy-2-(1-methyl-2-oxabicyclo[2.1.1]hexan-4-yl)-N-(6-(trifluoromethoxy)pyridin-2-yl)imidazo[1,2-a]pyrimidine-6-carboxamide]
– | 0.0011 µM | CC(C)Oc1nc2nc(C34COC(C)(C3)C4)cn2cc1C(=O)Nc1cccc(C(C)(F)F)n1 [Example 356, N-(6-(1,1-difluoroethyl)pyridin-2-yl)-7-isopropoxy-2-(1-methyl-2-oxabicyclo[2.1.1]hexan-4-yl)imidazo[1,2-a]pyrimidine-6-carboxamide trifluoroacetate]
8.52 | – | CC(C)Oc1cc2nc(C3CC3)cn2cc1C(=O)Nc1cccc(CC#N)n1 [Example 519, N-(6-(cyanomethyl)pyridin-2-yl)-2-cyclopropyl-7-isopropoxy-imidazo[1,2-a]pyridine-6-carboxamide]
8.09 | – | COc1cc2nc(C3CCOCC3)cn2cc1C(=O)Nc1cccc(C)c1F [Example 110]
8.92 | – | CC(C)Oc1cc2nc(C34COC(C)(C3)C4)c(F)n2cc1C(=O)Nc1cccc2ncnn12 [Example 329, N-([1,2,4]triazolo[1,5-a]pyridin-5-yl)-3-fluoro-7-isopropoxy-2-(1-methyl-2-oxabicyclo[2.1.1]hexan-4-yl)imidazo[1,2-a]pyridine-6-carboxamide trifluoroactate]
8.85 | – | CC(C)Oc1cc2nc([C@]34CC[C@](C)(C3)OC4)cn2cc1C(=O)Nc1cccn(C)c1=O (single isomer, unassigned) [Example 621]
8.11 | – | CC(C)Oc1cc2nc(C34CC(C#N)(C3)C4)cn2cc1C(=O)Nc1ccn(C)n1 [Example 404, 2-(3-Cyanobicyclo[1.1.1]pentan-1-yl)-7-isopropoxy-N-(1-methyl-1H-pyrazol-3-yl)imidazo[1,2-a]pyridine-6-carboxamide]

Structure (SMILES) | pIC50 | IC50
CCn1cccc(NC(=O)c2cn3cc(C45CCC(C)(C4)OC5)nc3cc2OC2CCC2)c1=O (centres unmarked) [Example 535, 7-Cyclobutoxy-N-(1-ethyl-2-oxo-1,2-dihydropyridin-3-yl)-2-(1-methyl-2-oxabicyclo[2.2.1]heptan-4-yl)imidazo[1,2-a]pyridine-6-carboxamide] | 8.96 | –
Cn1ccc(NC(=O)c2cn3cc(C45COC(C)(C4)C5)nc3cc2OC2CCC2)n1 [Example 437, 7-Cyclobutoxy-N-(1-methyl-1H-pyrazol-3-yl)-2-(1-methyl-2-oxabicyclo[2.1.1]hexan-4-yl)imidazo[1,2-a]pyridine-6-carboxamide] | 8.77 | –
CC12CCC(c3cn4cc(C(=O)Nc5ccn(CCF)n5)c(OC5CCC5)cc4n3)(CO1)C2 (centres unmarked) [Example 537, 7-Cyclobutoxy-N-(1-(2-fluoroethyl)-1H-pyrazol-3-yl)-2-(1-methyl-2-oxabicyclo[2.2.1]heptan-4-yl)imidazo[1,2-a]pyridine-6-carboxamide] | 8.20 | –
CC12CC(c3cn4cc(C(=O)Nc5ccn(CC#N)n5)c(OC5CCC5)cc4n3)(CO1)C2 [Example 527, N-(1-(cyanomethyl)-1H-pyrazol-3-yl)-7-cyclobutoxy-2-(1-methyl-2-oxabicyclo[2.1.1]hexan-4-yl)imidazo[1,2-a]pyridine-6-carboxamide] | 8.36 | –
COc1ncccc1NC(=O)c1cn2cc(C34COC(C)(C3)C4)nc2cc1OC1CCC1 [Example 526, 7-Cyclobutoxy-N-(2-methoxypyridin-3-yl)-2-(1-methyl-2-oxa-bicyclo[2.1.1]hexan-4-yl)imidazo[1,2-a]pyridine-6-carboxamide] | 9.52 | –
